# Measured values: article PMC3774728, “Identification of the Plant Compound Geraniin as a Novel Hsp90 Inhibitor” (PLoS ONE, 2013)
# Where two headings read alike, the source gives them in different places.
# How the values were obtained:
# Jurkat cells [1] = assay: Cell cycle and hypodiploidy by flow cytometry (PI), Jurkat; format: cell-based, human; conditions: 24 h, geraniin 0.7 µM, 17-AAG 10 µM
# Method: (§1) Cell DNA content was measured by propidium iodide (PI) incorporation into permeabilized cells, as described by Nicoletti et al.. Briefly, the cells were harvested after geraniin or 17-AAG treatments were washed with cold PBS and incubated with a PI solution (0.1% sodium citrate, 0.1% Triton X-100 and 50 µg mL^−1 of prodium iodide, Sigma-Aldrich, 10 µg/ml Rnase A) for 30 min at room temperature. Data from 10.000 events per sample were collected by a FACScalibur flow cytometer (Becton Dickinson, San José, CA) and cellular debris was excluded from analysis by raising the forward scatter threshold. The percentage of cells in the sub G0/G1 phase, apoptotic fraction, was quantified using CellQuest software (Becton Dickinson). The distribution of cells in G0/G1, S, G2/M phases was determined using ModFit LT cell cycle analysis software (Becton Dickinson). Results were expressed as a mean ± SD of three experiments performed in triplicate.
# (§2) Figure 6 Effects of geraniin and 17-AAG on cell cycle progression. Percentage of cell cycle stages was analyzed by flow cytometry, (A) PI-stained viable Jurkat cells treated with DMSO, 0.7 µM geraniin or 10 µM 17-AAG for 24 h.
# [2] = system: PHA-stimulated proliferating PBMC; assay: Hypodiploidy/necrosis by flow cytometry, PHA-stimulated PBMC; format: cell-based, human; conditions: untreated cells 1.5±0.8%
# Method: Jurkat and HeLa (epithelial carcinoma) cells, obtained from Cell Bank in GMP-IST (Genova, Italy) were maintained in RPMI 1640 medium or Dulbecco’s modified Eagle medium (DMEM), respectively, supplemented with 10% (v/v) FBS, 2 mM L−glutamine and antibiotics (100 U mL^−1 penicillin, 100 µg mL^−1 streptomycin) purchased from Invitrogen (Carslbad, CA, USA), at 37°C in humidified atmosphere with 5% CO2. To ensure logarithmic growth, cells were subcultured every two days. As control cells, human peripheral blood mononuclear cells (PBMC) were isolated from buffy coats of healthy donors (kindly provided by the Blood Center of the Hospital of Battipaglia, Salerno, Italy) by using standard Ficoll−Hypaque gradients. Freshly isolated PBMC contained 92.8±3.1% live cells. Proliferation of PBMC was induced by phytohemagglutinin (PHA) (10 µg mL^−1). […]
# Cell DNA content was measured by propidium iodide (PI) incorporation into permeabilized cells, as described by Nicoletti et al.. […] The percentage of cells in the sub G0/G1 phase, apoptotic fraction, was quantified using CellQuest software (Becton Dickinson). The distribution of cells in G0/G1, S, G2/M phases was determined using ModFit LT cell cycle analysis software (Becton Dickinson). Results were expressed as a mean ± SD of three experiments performed in triplicate.
# HeLa cells [3] = assay: Cell cycle and hypodiploidy by flow cytometry (PI), HeLa; format: cell-based, human; conditions: 24 h, geraniin 5 µM, 17-AAG 0.2 µM
# Method: as §1, §2
# HeLa cells [4] = assay: MTT cell viability, HeLa; format: cell-based, human; conditions: 24 h
# Method: (§3) To ensure logarithmic growth, cells were subcultured every two days. As control cells, human peripheral blood mononuclear cells (PBMC) were isolated from buffy coats of healthy donors (kindly provided by the Blood Center of the Hospital of Battipaglia, Salerno, Italy) by using standard Ficoll−Hypaque gradients. […] Proliferation of PBMC was induced by phytohemagglutinin (PHA) (10 µg mL^−1). Tumor and PBMC cells were treated with different concentrations of geraniin or 17-AAG to evaluate their cytotoxic effects. Stock solutions of geraniin (50 mM in DMSO) and 17-AAG (10 mM in DMSO) were stored a −20°C in the dark and diluted just before addition to the sterile culture medium. In all the experiments, the final concentration of DMSO was 0.10% (v/v).
# (§4) Jurkat (2×10^4/well) and HeLa (5000/well) cells were seeded in triplicate in 96 well−plates and incubated for 24 h in the absence or presence of different concentrations of geraniin (between 0,5 µM to 50 µM) or 17-AAG (between 0,5 nM to 10 µM).
# (§5) The number of viable cells was determined by using a [3–4,5-dimethyldiazol-2-yl]-2,5-diphenyl tetrazolium bromide (MTT, Sigma-Aldrich) conversion assay, according to the method described by Mosmann. […] The absorbance was measured with a microplate reader (Titertek multiskan MCC7340, LabSystems, Vienna, VA, USA) equipped with a 620 nm filter. […]
# Jurkat cells [5] = assay: MTT cell viability, Jurkat; format: cell-based, human; conditions: 24 h
# Method: as §3, §4, §5
# [6] = system: PBMC (human Peripheral Blood Mononuclear Cells); assay: Cytotoxicity in PHA-stimulated proliferating PBMC; format: cell-based; conditions: 24 h, trypan blue, only at high doses
# Method: as §3, with “Tumor and PBMC cells were treated with different concentrations of geraniin or 17-AAG to evaluate their cytotoxic effects.” left out
# The number of viable cells was determined by using a [3–4,5-dimethyldiazol-2-yl]-2,5-diphenyl tetrazolium bromide (MTT, Sigma-Aldrich) conversion assay, according to the method described by Mosmann. Briefly, following the treatment, 25 µL of MTT (5 mg/mL in PBS) was added and the cells were incubated for additional 3 h at 37°C. Thereafter, cells were lysed and suspended with 100 µL of buffer containing 50% (v/v) N,N-dimethylformamide, 20% SDS (pH 4.5). The absorbance was measured with a microplate reader (Titertek multiskan MCC7340, LabSystems, Vienna, VA, USA) equipped with a 620 nm filter. Cell population growth inhibition was tested by cytometric counting (trypan blu exclusion).
# [7] = target: T1, Hsp90α chaperone activity (Homo sapiens, UniProt P07900); assay: Citrate synthase thermal-induced aggregation assay (chaperone activity); format: biochemical; conditions: 0.075 µM CS, 0.075 µM Hsp90α, 0.3 µM ATP, four-fold molar excess (0.3 µM) compound, 43°C
# T1 construct: purchased Assay Designs (Ann Arbor, MI, USA)
# Method: Chaperone activity was evaluated by monitoring the thermal−induced aggregation of citrate synthase (CS) (0.075 µM), as reported elsewhere, in the absence or presence of a stoichiometric amount of Hsp90α and 0.3 µM ATP, and with or without a four−fold molar excess of each testing compound. Aggregation was initiated by unfolding CS incubating the protein in 40 mM HEPES–KOH, pH 7.5 at 43°C. Aggregation was monitored by measuring light scattering at right angles with the Perkin Elmer LS 55 fluorimeter in stirred and thermostatted quartz cells. Both the emission and excitation wavelengths were set at 500 nm, while the band–pass was 2 nm. Kinetics traces reported are the averages of two separate measurements.
# Figure 3 Inhibition of Hsp90α activity. ATPase activity of the chaperone was evaluated in the presence of different concentrations of geraniin, 17-AAG and HA (A). Data are reported as the residual ATPase activity (%) compared to that observed for an untreated sample. Data are the mean of three independent experiments performed in triplicate and were analyzed by t test (HA vs testing compounds): The error bar represents the standard deviation of nine measurements, while * indicates significance at P<0.01. Aggregation kinetics of citrate synthase (CS) at 43°C determined by light scattering (B). […]
# recombinant Hsp90α = target: T2, recombinant Hsp90α (Homo sapiens, UniProt P07900); assay: Surface plasmon resonance binding to immobilized Hsp90α
# T2 construct: purchased Assay Designs (Ann Arbor, MI, USA)
# Method: SPR analyses were carried out according to our previously published procedures, [23]. Briefly, SPR analyses were performed using a Biacore 3000 optical biosensor equipped with research−grade CM5 sensor chips (GE Healthcare). Using this platform, two separate recombinant Hsp90α surfaces, a BSA surface and one unmodified reference surface were prepared for simultaneous analyses. Proteins (100 µg mL^−1 in 10 mM CH3COONa, pH 5.0) were immobilized on individual sensor chip surfaces at a flow rate of 5 µL min^−1 using standard amine−coupling protocols to obtain densities of 8–12 kRU. Polyphenols, as well as 17-AAG and hardwickiic acid (HA), were dissolved in 100% DMSO to obtain 4 mM solutions, and diluted 1∶200 (v/v) in PBS (10 mM NaH2PO4, 150 mM NaCl, pH 7.4) to a final DMSO concentration of 0.5%. […] Binding experiments were performed at 25°C, using a flow rate of 50 µL min^−1, with 60 s monitoring of association and 300 s monitoring of dissociation. Simple interactions were suitably fitted to a single−site bimolecular interaction model (A+B = AB), yielding a single K D. Sensorgram elaborations were performed using the BIAevaluation software provided by GE Healthcare.
# Putative interactions of different plant-derived phenolic compounds with Hsp90α were evaluated by a SPR-based approach.
# [8] = SPR, immobilized Hsp90α, 25°C, single-site bimolecular model, 0.025-1 µM, read-out: KD
compound,measurement,setting,value
"C=CCNC1=C2C[C@@H](C)C[C@H](OC)[C@H](O)[C@@H](C)/C=C(\C)[C@H](OC(N)=O)[C@@H](OC)/C=C\C=C(/C)C(=O)NC(=CC1=O)C2=O [Compound 17-AAG, 17-(allylamino)-17-demethoxygeldanamycin, reference compound]",cell cycle arrest,Jurkat cells [1],G1 and G2/M arrest
same,percentage of cells with hypodiploid nuclei,Jurkat cells [1],6.05±0.4%
same,levels of hypodiploidy/necrosis,[2],1.8±0.6%
same,cell cycle arrest,HeLa cells [3],G1 and G2/M arrest
same,percentage of cells with hypodiploid nuclei,HeLa cells [3],11.6±0.5%
same,IC50,HeLa cells [4],0.2 ± 0.3 µM
same,IC50,Jurkat cells [5],9.6 ± 0.15 µM
same,cytotoxic effects in control PBMC,[6],Minimal cytotoxic effects
"C[C@@H]1CC[C@@]2(C)C(C(=O)O)=CCC[C@@H]2[C@@]1(C)CCc1ccoc1 [HA, hardwickiic acid, reference compound]",effect on citrate synthase aggregation kinetics in the presence of Hsp90α,[7],did not perturb the CS+Hsp90α curve
same,KD,"recombinant Hsp90α; SPR, immobilized Hsp90α, 25°C, single-site bimolecular model, 0.025-1 µM",No binding
COc1cc(-c2oc3cc(O)cc(O)c3c(=O)c2O)ccc1O [Compound 5],Kd,recombinant Hsp90α,0.748 ± 0.045 µM
O=c1c(O)c(-c2ccc(O)cc2)oc2cc(O)cc(O)c12 [Compound 2],Kd,recombinant Hsp90α; [8],4.83 ± 0.515 µM
O=c1c(O)c(-c2ccc(O)c(O)c2)oc2cc(O)ccc12 [Compound 4],Kd,recombinant Hsp90α; [8],5.33 ± 0.862 µM
CC(=O)Oc1cc(OC(C)=O)c2c(=O)c(OC(C)=O)c(-c3ccc(OC(C)=O)c(OC(C)=O)c3)oc2c1 [Compound 6],Kd,recombinant Hsp90α; [8],2.21 ± 0.351 µM
O=C1c2c(O)cc(O)cc2OC(c2ccc(O)c(O)c2)C1O (stereo not shown) [Compound 34],Kd,recombinant Hsp90α; [8],1.82 ± 0.242 µM
O=c1cc(-c2ccc(O)cc2)oc2cc(O)cc(O)c12 [Compound 19],Kd,recombinant Hsp90α; [8],8.75 ± 0.735 µM
